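Cultured in 96-well plates, cells were exposed to test compound for 48 hours across five concentrations. GI50 = concentration required for 50% inhibition of growth.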 Activity calls are given as the source filed them. Cut-off read from the data, not from the text of the source: active = GI50 up to about 1.1 µM and inactive = higher.

These results are taken from ChEMBL document CHEMBL1201862, “PubChem BioAssay data set” (2004).

Among the test systems are NCI-H522; EKVX; MDA-MB-435; SF-268; MCF7; OVCAR-5; NCI-H23; SNB-19; SN12C; SF-295; MDA-N; OVCAR-8; RPMI-8226; HOP-92; 786-0; SK-MEL-2; HCT-116; HT-29; UACC-257; SNB-75.
Common to all, as to experiment: NCI tumour cell line growth inhibition, 48 h

Turning to `CCOC(=O)C1C(=O)C=C(c2cc(C)ccc2O)CC1c1cccc(Br)c1` (stereo unspecified), the GI50 in the assay with NCI-H522 was 14.7 µM (inactive); in the assay on EKVX, 24 µM (inactive); in the assay on MDA-MB-435, 2.39 µM (inactive); in the assay with SF-268, 19.5 µM (inactive); with MCF7, 14.9 µM (inactive); with OVCAR-5, 25.1 µM (inactive). Moreover, the GI50 with NCI-H23 is 17.5 µM (inactive); in the assay on SNB-19, 13.4 µM (inactive); in the assay with SN12C, 16.9 µM (inactive); in the assay on SF-295, 13.6 µM (inactive); with MDA-N, 4.05 µM (inactive); in the assay on OVCAR-8 it was 30 µM (inactive). Also, the GI50 in the assay with RPMI-8226 is 13.9 µM (inactive); with HOP-92 it was 10.4 µM (inactive); in the assay with 786-0, 17.6 µM (inactive); in the assay with SK-MEL-2, 18.5 µM (inactive); in the assay with HCT-116, 18 µM (inactive); with HT-29, 18.9 µM (inactive). The GI50 with UACC-257 is 15.7 µM (inactive).
For `Cc1nc2ccc([N+](=O)[O-])cc2c(=O)n1C(=S)Nc1cccc(Cl)c1`, the GI50 is 18.7 µM (inactive) in the assay with EKVX; 17.7 µM (inactive) in the assay with MDA-MB-435; 16.8 µM (inactive) in the assay with SF-268; 17.2 µM (inactive) in the assay on MCF7; 28.2 µM (inactive) in the assay on OVCAR-5; 13.8 µM (inactive) in the assay with NCI-H23. The GI50 with SNB-19 was 27.8 µM (inactive); with SN12C it was 20 µM (inactive); in the assay with SF-295, 18.3 µM (inactive); in the assay on SNB-75, 16.5 µM (inactive); with MDA-N, 16.4 µM (inactive); with RPMI-8226, 4.06 µM (inactive). The GI50 in the assay on HOP-92 is 3.5 µM (inactive); in the assay on 786-0, 24.7 µM (inactive); with SK-MEL-2, 6.18 µM (inactive); in the assay with HCT-116, 16 µM (inactive); in the assay with HT-29, 17.7 µM (inactive); with UACC-257, 17.3 µM (inactive).
For the compound `CCNc1nc(N)c(C(=O)c2cccs2)s1`, the GI50 was 26.3 µM (inactive) with NCI-H522; 26.2 µM (inactive) in the assay on EKVX; 20.9 µM (inactive) in the assay with MDA-MB-435; 32.8 µM (inactive) with SF-268; 22 µM (inactive) in the assay on MCF7; 31.3 µM (inactive) with OVCAR-5. Further, the GI50 with NCI-H23 was 20.9 µM (inactive); in the assay with SNB-19, 40.7 µM (inactive); in the assay on SN12C it was 30 µM (inactive); in the assay with SF-295 it was 34 µM (inactive); with SNB-75, 10.4 µM (inactive); in the assay with MDA-N it was 25.6 µM (inactive). Moreover, the GI50 in the assay with OVCAR-8 was 24.7 µM (inactive); in the assay on HOP-92, 41.2 µM (inactive); in the assay with 786-0 it was 26.6 µM (inactive); in the assay with SK-MEL-2, 16.5 µM (inactive); in the assay on HCT-116 it was 9.86 µM (inactive); in the assay with HT-29 it was 17.2 µM (inactive). Moreover, the GI50 in the assay with UACC-257 was 46.9 µM (inactive).
`C/N=c1/oc2ccccc2cc1C(N)=O`: the GI50 in the assay on NCI-H522 was > 100 µM (inactive); in the assay on EKVX it was 30.8 µM (inactive); with MDA-MB-435, > 100 µM (inactive); in the assay on SF-268, > 100 µM (inactive); in the assay on MCF7, 87.7 µM (inactive); with NCI-H23 it was > 100 µM (inactive). Moreover, the GI50 is 56.4 µM (inactive) in the assay on SNB-19; > 100 µM (inactive) in the assay with SN12C; > 100 µM (inactive) in the assay with SF-295; > 100 µM (inactive) with SNB-75; > 100 µM (inactive) with MDA-N; > 100 µM (inactive) with OVCAR-8. Moreover, the GI50 with RPMI-8226, in the assay on HOP-92, with 786-0, in the assay with SK-MEL-2, in the assay on HCT-116 and with HT-29 was > 100 µM (inactive) in each case. The GI50 in the assay with UACC-257 was > 100 µM (inactive).
With `[B].c1ccc([Si](OCCN2CC2)(c2ccccc2)c2ccccc2)cc1`, the GI50 in the assay on NCI-H522 is 12.9 µM (inactive); in the assay on EKVX, 12.8 µM (inactive); in the assay on MDA-MB-435, 13.8 µM (inactive); in the assay on SF-268, 11 µM (inactive); in the assay with MCF7, 14.5 µM (inactive); in the assay on OVCAR-5, 14.6 µM (inactive). The GI50 with NCI-H23 was 15.6 µM (inactive); with SNB-19 it was 0.436 µM (active); in the assay with SN12C, 14.3 µM (inactive); in the assay on SF-295, 14.3 µM (inactive); with MDA-N, 14.9 µM (inactive); in the assay on OVCAR-8, 16.6 µM (inactive). In addition, the GI50 with RPMI-8226 was 13.9 µM (inactive); in the assay with HOP-92 it was 2.36 µM (inactive); in the assay with 786-0 it was 14.2 µM (inactive); with SK-MEL-2, 0.557 µM (active); with HCT-116, 14.6 µM (inactive); in the assay on HT-29, 14 µM (inactive). Further, the GI50 in the assay on UACC-257 is 15.3 µM (inactive).
Regarding `COC1/C=C\OC2(C)Oc3c(C)c(O)c4c(O)c(c(/C=N\OCCCc5ccccc5)c(O)c4c3C2=O)NC(=O)/C(C)=C\C=C/C(C)C(O)C(C)C(O)C(C)C(OC(C)=O)C1C` (stereo unspecified), the GI50 in the assay with NCI-H522 is 3.54 µM (inactive); in the assay on EKVX it was 4.52 µM (inactive); in the assay on MDA-MB-435, 3.25 µM (inactive); in the assay with SF-268, 4.93 µM (inactive); in the assay with MCF7, 1.17 µM (inactive); in the assay with OVCAR-5 it was 6.85 µM (inactive). The GI50 in the assay on NCI-H23 is 3.21 µM (inactive); in the assay with SNB-19, 6.32 µM (inactive); in the assay on SN12C, 1.81 µM (inactive); in the assay with SF-295 it was 4.72 µM (inactive); in the assay on SNB-75 it was 2.62 µM (inactive); in the assay on MDA-N it was 3.44 µM (inactive). In addition, the GI50 is 4.9 µM (inactive) in the assay with OVCAR-8; 2.15 µM (inactive) in the assay with HOP-92; 3.24 µM (inactive) in the assay on 786-0; 2.18 µM (inactive) in the assay on SK-MEL-2; 2.3 µM (inactive) with HCT-116; 3.59 µM (inactive) with HT-29. Further, the GI50 in the assay with UACC-257 is 5.74 µM (inactive).
For the compound `Clc1ccc2c(c1)N(CCCN1CCCC13CCCCC3)c1ccccc1S2`, the GI50 was 10.6 µM (inactive) with NCI-H522; 11.9 µM (inactive) with EKVX; 14.2 µM (inactive) with MDA-MB-435; 18.8 µM (inactive) in the assay on SF-268; 14.3 µM (inactive) in the assay on MCF7; 17.3 µM (inactive) in the assay on OVCAR-5. The GI50 in the assay on NCI-H23 is 16.1 µM (inactive); in the assay on SNB-19, 13.7 µM (inactive); with SN12C, 13.4 µM (inactive); with SF-295, 15.6 µM (inactive); with MDA-N, 13.1 µM (inactive); with OVCAR-8, 16.5 µM (inactive). Besides, the GI50 with RPMI-8226 was 2.79 µM (inactive); with HOP-92, 10.4 µM (inactive); with 786-0, 10.8 µM (inactive); with SK-MEL-2 it was 9.77 µM (inactive); in the assay on HCT-116, 13.9 µM (inactive); with HT-29, 4.33 µM (inactive). Further, the GI50 with UACC-257 was 10.3 µM (inactive).
In the case of `COc1ccc(-c2c3c(n(C4OC(CO)C(O)C(O)C4O)c(=S)c2C#N)CC(C)(C)CC3=O)cc1` (stereo unspecified), the GI50 in the assay with NCI-H522, with MDA-MB-435, with SF-268, in the assay with MCF7, in the assay on OVCAR-5 and in the assay on NCI-H23 was > 100 µM (inactive) in each case. Also, the GI50 in the assay with SNB-19 is > 100 µM (inactive); in the assay with SN12C, > 100 µM (inactive); in the assay on SF-295, > 100 µM (inactive); in the assay on SNB-75 it was 96.6 µM (inactive); in the assay with MDA-N, > 100 µM (inactive); with OVCAR-8, > 100 µM (inactive). Besides, the GI50 was 89.7 µM (inactive) in the assay with RPMI-8226; > 100 µM (inactive) in the assay with HOP-92; > 100 µM (inactive) in the assay on 786-0; > 100 µM (inactive) with SK-MEL-2; 73.3 µM (inactive) in the assay with HCT-116; > 100 µM (inactive) with HT-29. Also, the GI50 with UACC-257 is > 100 µM (inactive).
As for `CCCCCCCCCCCCCCCCCCNc1ccn(C2OC(COP(=O)(O)OCC3CCC(n4cnc5c(=O)[nH]cnc54)O3)C(O)C2O)c(=O)n1` (stereo unspecified), the GI50 was 51.5 µM (inactive) in the assay with NCI-H522; > 100 µM (inactive) in the assay with EKVX; > 100 µM (inactive) with MDA-MB-435; > 100 µM (inactive) in the assay on SF-268; > 100 µM (inactive) with MCF7; 35.4 µM (inactive) in the assay on OVCAR-5. Besides, the GI50 in the assay on NCI-H23, in the assay with SNB-19, in the assay with SN12C, in the assay with SF-295, in the assay on SNB-75 and in the assay on MDA-N was > 100 µM (inactive) in each case. Moreover, the GI50 with OVCAR-8 was > 100 µM (inactive); in the assay with HOP-92 it was > 100 µM (inactive); with 786-0, 43.5 µM (inactive); in the assay with SK-MEL-2, > 100 µM (inactive); in the assay on HCT-116, > 100 µM (inactive); in the assay on HT-29, > 100 µM (inactive). In the assay on UACC-257, the GI50 is > 100 µM (inactive).
For the compound `Nc1nc(Cl)c2nnn(CC3CCC(CO)C3)c2n1` (stereo unspecified), the GI50 in the assay with EKVX, in the assay on MDA-MB-435, with SF-268, in the assay with MCF7, in the assay with OVCAR-5 and with SNB-19 was > 100 µM (inactive) in each case. For the same compound, the GI50 in the assay with SN12C, in the assay on SF-295, in the assay on SNB-75, in the assay with MDA-N, in the assay with RPMI-8226 and with HOP-92 was > 100 µM (inactive) throughout. For the same compound, the GI50 in the assay with 786-0, in the assay on SK-MEL-2, in the assay with HCT-116 and in the assay with UACC-257 was > 100 µM (inactive) each time.
